From patent US20010044457A1, “Cancer Treatment” (priority 2000, published 2001)

Test system: pancreatic (MiaPaCa) cancer
Experiment: in vivo pancreatic (MiaPaCa) cancer nude mouse tumor model
Method: The control is PEG. Both the control and the active are given once a week to the end. The doses were 500 mg/kg, 750 mg/kg and 1000 mg/kg. The surviving animals average tumor weight in mg is: […]

COc1ccc(C=Nn2cc(-c3ccccc3)nc2N)cc1 [2-Amino-1-(4-methoxybenzyliden)amino-4-phenylimidazole]
Deaths (500 mg/kg once a week, Day 1): 0 | Tumor Weight (surviving animals average) (500 mg/kg once a week, Day 1): 77 mg | Deaths (500 mg/kg once a week, Day 5): 0 | Tumor Weight (surviving animals average) (500 mg/kg once a week, Day 5): 161 mg | Deaths (500 mg/kg once a week, Day 9): 0 | Tumor Weight (surviving animals average) (500 mg/kg once a week, Day 9): 322 mg | Deaths (500 mg/kg once a week, Day 12): 0 | Tumor Weight (surviving animals average) (500 mg/kg once a week, Day 12): 271 mg | Deaths (500 mg/kg once a week, Day 16): 0 | Tumor Weight (surviving animals average) (500 mg/kg once a week, Day 16): 596 mg | Deaths (500 mg/kg once a week, Day 19): 0 | Tumor Weight (surviving animals average) (500 mg/kg once a week, Day 19): 640 mg | Deaths (500 mg/kg once a week, Day 23): 0 | Tumor Weight (surviving animals average) (500 mg/kg once a week, Day 23): 638 mg | Deaths (500 mg/kg once a week, Day 26): 0 | Tumor Weight (surviving animals average) (500 mg/kg once a week, Day 26): 532 mg | efficacy in tumor model (500 mg/kg, 750 mg/kg and 1000 mg/kg once a week, control PEG): dose responsive efficacy | Deaths (750 mg/kg once a week, Day 1): 0 | Tumor Weight (surviving animals average) (750 mg/kg once a week, Day 1): 76 mg | Deaths (750 mg/kg once a week, Day 5): 0 | Tumor Weight (surviving animals average) (750 mg/kg once a week, Day 5): 117 mg | Deaths (750 mg/kg once a week, Day 9): 0 | Tumor Weight (surviving animals average) (750 mg/kg once a week, Day 9): 290 mg | Deaths (750 mg/kg once a week, Day 12): 0 | Tumor Weight (surviving animals average) (750 mg/kg once a week, Day 12): 281 mg | Deaths (750 mg/kg once a week, Day 16): 0 | Tumor Weight (surviving animals average) (750 mg/kg once a week, Day 16): 369 mg | Deaths (750 mg/kg once a week, Day 19): 0 | Tumor Weight (surviving animals average) (750 mg/kg once a week, Day 19): 364 mg | Deaths (750 mg/kg once a week, Day 23): 0 | Tumor Weight (surviving animals average) (750 mg/kg once a week, Day 23): 420 mg | Deaths (750 mg/kg once a week, Day 26): 0 | Tumor Weight (surviving animals average) (750 mg/kg once a week, Day 26): 418 mg | Deaths (1000 mg/kg once a week, Day 1): 0 | Tumor Weight (surviving animals average) (1000 mg/kg once a week, Day 1): 90 mg | Deaths (1000 mg/kg once a week, Day 5): 0 | Tumor Weight (surviving animals average) (1000 mg/kg once a week, Day 5): 90 mg | Deaths (1000 mg/kg once a week, Day 9): 0 | Tumor Weight (surviving animals average) (1000 mg/kg once a week, Day 9): 150 mg | Deaths (1000 mg/kg once a week, Day 12): 0 | Tumor Weight (surviving animals average) (1000 mg/kg once a week, Day 12): 130 mg | Deaths (1000 mg/kg once a week, Day 16): 0 | Tumor Weight (surviving animals average) (1000 mg/kg once a week, Day 16): 120 mg | Deaths (1000 mg/kg once a week, Day 19): 1 | Tumor Weight (surviving animals average) (1000 mg/kg once a week, Day 19): 110 mg | Deaths (1000 mg/kg once a week, Day 23): 0 | Tumor Weight (surviving animals average) (1000 mg/kg once a week, Day 23): 198 mg | Deaths (1000 mg/kg once a week, Day 26): 0 | Tumor Weight (surviving animals average) (1000 mg/kg once a week, Day 26): 192 mg
